# Results reported in a melting point compilation (Tetko et al.; mined from patent text by program, amines drawn as free bases though some values may be those of a salt).
# Non-standard residues stand in square brackets, D forms with d. Residues, ends and D or L forms follow the SMILES beside them. Hyp = O=C(O)[C@@H]1C[C@@H](O)CN1
row,Compound,melting point [°C]
1,Cc1ccc(NC(=O)C(=O)N2CCC(Cc3ccc(F)cc3)CC2)cc1,125 to 126
2,Cc1cccc(C(C)C)c1NC(=O)NC1(c2cccs2)CCCCC1,230 to 232
3,COC(=O)c1c(C)nc2ccccc2c1NCc1ccc(Br)cc1,89
4,CC(C)(C)c1cc(CCc2n[nH]c(=O)o2)cc(C(C)(C)C)c1O,120 to 123
5,Cc1c(CN(C)CCc2ccc(NS(C)(=O)=O)cc2)oc2ccc(NS(C)(=O)=O)cc12,142 to 144
6,CC(=O)N1CCc2c(sc3nc4ccccc4n23)C1,181 to 186
7,O=C1CCC(N2Cc3c(OCc4ccccc4CN4CCOCC4)cccc3C2=O)C(=O)N1 (stereo not drawn),188 to 190
8,CC(c1ccccc1)(c1ccc(O)cc1)c1ccc(O)cc1,185 to 187
9,CC(C)c1cccc(C(C)C)c1NC(=O)C1c2ccccc2OCc2nc(Br)ccc21 (stereo not drawn),151 to 153
10,O=C(O)CNC(=O)CCCCc1ccccc1,93 to 96
11,CCN(CC)CCn1nc2c3c(c(NCCNCCO)ccc31)Sc1c(OC)ccc(OC)c1-2,119 to 123
12,Nn1c(=O)c2cc(F)c(S(=O)(O)=S)nc2n(C2CC2)c1=O,167 to 169
13,O=C1CC2c3c(Br)cccc3CCC23OCC(c2ccccc2)N13 (stereo not drawn),123 to 126
14,CCC(CC)(CC(=O)Nc1cccc(/C=C/c2cccc(COCCCCc3ccc(C)cc3)n2)c1)C(=O)O,114 to 116
15,O=C(O)[C@H]1CC[C@H](N2CCC(Oc3ccc(Cl)c(Cl)c3)CC2)CC1,167 to 168
16,COC(=O)c1cc(F)c(OC)nc1Nc1ccc(F)cc1F,160 to 161
17,O=C1SC2CCN(Cc3ccccc3Cl)CC2=C1O (stereo not drawn),121
18,CC1=C(C(=O)OC2CCCC2)C(c2c(F)cccc2Cl)C(C(=O)n2ccnc2)=C(C)N1 (stereo not drawn),150
19,CCOC(=O)CC[C@H](NC(=O)c1ccc(CCC2CNc3nc(NC(=O)C(C)(C)C)nc(O)c3C2)cc1)C(=O)OCC (stereo partly drawn),> 250
20,Cn1cccc1C(=O)C(C#N)C(=O)Nc1ccc([N+](=O)[O-])cc1 (stereo not drawn),193 to 195
21,CC(C)Cn1nc(OCCCCc2ccc(OC(C)C)cc2Oc2ncc(C(F)(F)F)cc2Cl)cc1CCC(=O)O,122 to 123
22,Cc1nc(CN(C(=O)CCl)c2c(C)cccc2C)cs1,62 to 64
23,CC(C)(Cn1c(CO)nc2c(N)nc3ccccc3c21)NC(=O)C1CCCCC1,248 to 250
24,CCC=Cc1nc2ccccc2n1-c1cccc(C#N)c1C,125
25,COc1cc(CBr)cc2c(Br)ccc(OC(C)C)c12,126
26,CC(=O)Oc1cccc(C(=O)Nc2ccc3ccc(Cl)nc3n2)c1,207
27,CN1C(=O)CC(c2c(-c3ccc[nH]3)[nH]c3ccc(O)cc23)C1=O (stereo not drawn),148 to 154

row,Compound,melting point [°C]
1,Cc1nnc(C=Cc2ccccc2OC[C@@H](O)CN2CCC(c3ccc4ccccc4c3)CC2)o1,105 to 106
2,CCOC(=O)/C=C/c1oc2cccc(O)c2c1C,180 to 182
3,O=C(CCN1C(=O)c2ccccc2C1=O)c1ccccc1C(=O)c1ccc(Cl)cc1Cl,133 to 134
4,CC(=O)OC1CSC(Oc2ccc(-c3ccncc3)cc2)C(OC(C)=O)C1OC(C)=O (stereo not drawn),180
5,C(=C\c1nc(COc2ccc(CCCCn3cncn3)cc2)co1)/c1ccccc1,94 to 95
6,O=C(N[C@H]1CCCNC1=O)c1cccc(C(F)(F)F)c1,148 to 150
7,COc1cn(-c2ccc(C3=CCOCC3)cc2F)nc(-c2ccnn2-c2ccccc2)c1=O,229 to 231
8,OCC1CCc2ncsc2C1 (stereo not drawn),176 to 182
9,O=C(OC1=CC(O)=CC(C=Cc2ccc(O)cc2)(C(=O)c2cc(O)c(O)c(O)c2)C1)c1cc(O)c(O)c(O)c1 (stereo not drawn),210 to 212
10,COc1ccc(C(=O)OC(=C2C(=O)N(C(N)=O)c3cc(Cl)c(F)cc32)c2cccs2)cc1,220 to 221
11,O=[N+]([O-])c1ccc(OCC2CC2)c(C(F)(F)F)c1,41 to 44
12,CN(C)C(=O)Sc1ccc(CC#N)cc1,97 to 99
13,Cc1nc(N2CCN(C)CC2)ccc1N1CCCn2c1nc1c(Cl)ccc(C(OC(F)F)C(F)(F)F)c12 (stereo not drawn),193 to 195
14,COc1cccc(CNC(=O)c2nc3cccc(OCCN4CCC(C(=O)O)CC4)c3c(=O)[nH]2)c1,127 to 130
15,CS(=O)(=O)c1ccc(-c2nnc(Cl)cc2-c2ccc(Cl)cc2)cc1,190
16,Cc1nnnn1CCCC(=O)O,71 to 72.5
17,c1ccc(-c2cc(N3CCNCC3)nc3ccccc23)cc1,133 to 134
18,COc1ccc(CC(=O)N2CCC[C@H]2C(=O)O)cc1,138 to 139
19,Nc1ccsc1C(=O)NC/C=C\COc1cc(CN2CCCCC2)ccn1,138 to 140
20,Cc1cc(C)c(C2Cc3cc(NC(=O)CC(C)(C)C)cc(Cc4ccc(C(C)C)cc4)c3O2)cc1CO (stereo not drawn),136 to 137
21,Cc1nc2nc(NCCN3CCC(Nc4nc5ccccc5n4Cc4ccc(F)cc4)CC3)ccc2[nH]1,202
22,CCCCc1nn(-c2ccc(C(F)(F)F)cn2)cc1CCCOc1ccccc1CC(=O)O,106 to 107
23,CCOc1ccc(C2CC(C(C)(C)C)=NN2c2ccc(C(=O)O)cc2)cc1 (stereo not drawn),160
24,O=C(NOCC(=O)N1CCCC1C(=O)O)NN1CCCC1C(=O)O (stereo not drawn),157 to 160
25,O[C@@H](CNCCOc1ccc2oc(-c3noc(C(F)(F)F)n3)cc2c1)c1cccc(Cl)c1,108 to 111
26,CCCN(CCC)Cc1csc(-c2ncn3c2[C@@H]2CCCN2C(=O)c2c(Cl)cccc2-3)n1,213 to 214
27,CC1(C)Oc2ccc(S(=O)(=O)C(F)(F)F)cc2[C@@H](n2ccccc2=O)[C@@H]1O (relative stereo),219 to 220

# Other lines, results leading:
row,melting point [°C],Compound
1,82 to 85,CCOC(=O)C(C)(C)Oc1ccc(C(=O)c2ccccc2)cc1
2,198 to 200,Cc1[nH]c(=O)n(C2CCCCC2)c1-c1ccc(OCCC(C)C)cc1
3,150 to 152,N#CC(=Cc1ccncc1)c1cccnc1
4,158 to 160,NCC(=O)N1C[C@H](O)C[C@H]1C(=O)N[C@@H](CCC(=O)O)C(=O)O (H-Gly-[Hyp]-Glu-OH)
5,103 to 107,CN(C)c1nc2cc(C(F)(F)F)ccc2n1Cc1ccc(Cl)cc1
6,168 to 171,CC(C)(c1ccc(O)cc1)c1ccc(N2C(=O)C=CC2=O)cc1
7,125 to 126,O=C(OCc1ccccc1)c1cc(Cl)c(Cl)c(Cl)n1
8,232 to 233,Cc1cccc(NC(=O)Cn2c3c(c4c(Cl)c(Cl)ccc42)CCN(C(=O)OC(C)(C)C)CC3)c1C
9,94 to 95,CCc1ccc(/C=C/c2nc(COc3ccc(CCCCn4ccnc4CCO)cc3)co2)cc1
10,237 to 238,CC(C)Cn1c(=O)n(C)c(=O)c2c(Sc3nnc[nH]3)c(Cc3csc4ccccc34)sc21
11,151,COC(=O)c1cc(S(C)(=O)=O)c(Cl)cc1C
12,167 to 168,CC(C)C1=Nc2ccccc2N(C)C(=O)C1N (stereo not drawn)
13,103 to 105,COc1cccc2c1OC(SC)C2=O (stereo not drawn)
14,112 to 113,Cc1oc(-c2ccccc2)nc1CCc1ccc(CCCC2OC(=O)NC2=O)cc1 (stereo not drawn)
15,227 to 228,CC(C)(C)C(NC(=O)COc1ccccc1)Nc1c(Nc2cccnc2)c(=O)c1=O (stereo not drawn)
16,288 to 292,CCCN1NCc2c(C3C(=O)Nc4ccc(F)cc43)ncnc21 (stereo not drawn)
17,189 to 190,CC(=O)NC(C)(C(=O)O)C(C)C (stereo not drawn)
18,117 to 118,O=C(c1ccccc1)N1CCCC(c2ccc(Cl)cc2)=N1
19,57 to 58,COc1ccccc1CC(=N)N1CCC(=O)C(C(c2ccccc2)c2ccccc2)C1 (stereo not drawn)
20,167 to 170,Cc1nccn1-c1ccc(COc2cc(F)cc(C3(C(N)=S)CCOCC3)c2)cc1
21,190 to 191,O=C(Cc1c(-c2ccccc2)nn(-c2ccccc2)c1-c1ccccc1)Oc1ccccc1C(=O)O
22,80 to 83,O=C1c2ccccc2C(=O)N1c1ccccc1CSc1nccn1Cc1ccccn1

row,melting point [°C],Compound
1,242,CCNn1cc(C(=O)O)c(=O)c2cc3c(cc21)OCO3
2,210 to 212,COc1cc(OC)c(-c2cc3ccccc3[nH]2)cc1C=CC(=O)c1ccc(C(=O)O)cc1
3,88 to 92,CC1CCC(=Nc2ccccc2)N1Cc1c[nH]c2ccccc12 (stereo not drawn)
4,160 to 161,Cc1nc(-n2cnn(CC3CC3)c2=O)sc1C(=O)NCc1ccccn1
5,222 to 225,Cc1cc(C)c(Nc2nc(C)ccc2S(=O)(=O)c2ccc(C(=O)c3ccccc3)cc2)c(C)c1
6,299,Cc1[nH]c(=O)[nH]c1C(=O)C=Cc1ccccc1
7,121 to 125,C=C(CN1CCOCC1)C(=O)O
8,182 to 183,COc1c(-c2cc3c(s2)C(O)CC(C)(C)C3)ccc2c(=O)c(C(=O)O)cn(C3CC3)c12 (stereo not drawn)
9,106,CC(C)n1nc(C#Cc2ccc(F)cc2)ccc1=O
10,90 to 91,COc1ccc(CC=[N+]([O-])C(C)(C)C)cc1
11,69 to 70,CCCn1cnc2c1c(=O)n(CCCCCC(C)=O)c(=O)n2C
12,182 to 183,CCCCC(=O)Nc1cccc2c1C1(COc3cc4c(cc31)OCCO4)C(=O)N2C (stereo not drawn)
13,100 to 103,COc1ccccc1-c1cccc2c1OC(COS(=O)(=O)c1ccc(C)cc1)C2 (stereo not drawn)
14,159 to 161,CC(C)N1CC(CO)C(c2ccccc2)(c2ccccc2)C1=O (stereo not drawn)
15,272 to 273,COc1cc2c3c(ccc([N+](=O)[O-])c3c1[N+](=O)[O-])C(=O)N(O)C2=O
16,168 to 170,Nc1cc(-n2cc(C(=O)O)c(=O)c3cc(F)c(N4CC(N)C4)nc32)c(F)cc1F
17,118 to 121,CCS(=O)(=O)NC1CCCCc2ccc(F)cc21 (stereo not drawn)
18,78 to 80,CN(C)Cc1nc(-c2ccccc2)cn1Cc1ccccc1
19,190 to 195,COc1ccc2c(Cc3c(Cl)cncc3Cl)nnc(CO)c2c1
20,102 to 103,c1ccc(NC2CCc3cccnc3C2)cc1 (stereo not drawn)
21,70 to 72,CC(C)(C)Oc1ccc(CCC(=O)NCCC(=O)O)cc1
22,113 to 114,C#CCON=Cc1c(C(=O)OC)[nH]c2c(C)ccc(C)c12
